Assay results from article PMC11200585, “Prospects for Prostate Cancer Chemotherapy: Cytotoxic Evaluation and Mechanistic Insights of Quinolinequinones with ADME/PK Profile” (Biomedicines, 2024).

Key:
Assay type in all cases: cell-based, human
RPMI-8226 [1] = experiment: NCI-60 five-dose assay (leukemia); conditions: 48 h, SRB
SR = experiment: NCI-60 one-dose screen (leukemia); conditions: 10 µM single dose, 48 h
CCRF-CEM [2] = experiment: NCI-60 one-dose screen (leukemia); conditions: 10 µM single dose
HL-60(TB) = experiment: NCI-60 one-dose screen (leukemia); conditions: 10 µM single dose, 48 h
RPMI-8226 [3] = experiment: NCI-60 one-dose screen (leukemia); conditions: 10 µM single dose, 48 h
K-562 [4] = experiment: NCI-60 one-dose screen (leukemia); conditions: 10 µM single dose, 48 h
CCRF-CEM [5] = experiment: NCI-60 five-dose assay (leukemia); conditions: 48 h, SRB
HCC-2998 = experiment: NCI-60 five-dose assay (colon cancer); conditions: 48 h, SRB
MDA-MB-231/ATCC [6] = experiment: NCI-60 five-dose assay (breast cancer); conditions: 48 h, SRB
SW-620 = experiment: NCI-60 five-dose assay (colon cancer); conditions: 48 h, SRB
MCF7 [7] = experiment: NCI-60 five-dose assay (breast cancer); conditions: 48 h, SRB
NCI-H23 = experiment: NCI-60 five-dose assay (non-small cell lung cancer); conditions: 48 h, SRB
MDA-MB-468 = experiment: NCI-60 one-dose screen (breast cancer); conditions: 10 µM single dose, 48 h
Experimental: (§1) The obtained quinolinequinones were submitted to NCI, Bethesda, USA, and, as per standard protocol of NCI, all compounds were evaluated for their antiproliferative activity at single-dose assay (10 µM concentration in DMSO) on a panel of 60 cancer cell lines derived from leukemia, non-small-cell lung, colon, CNS, melanoma, ovarian, renal, prostate, and breast, as per protocol. Tested compounds were added to the microtiter culture plates followed by incubation for 48 h at 37 °C. Sulforhodamine B (SRB), a protein-binding dye, is used for endpoint determination. The percent of the growth of the treated cells was determined in comparison to the untreated control cells and the results of each tested compound were reported. Data from one-dose experiments pertain to the percentage growth at 10 μM [16, 17, 18].

BT-549 = experiment: NCI-60 one-dose screen (breast cancer); conditions: 10 µM single dose, 48 h
Experimental: as §1

HS 578T = experiment: NCI-60 one-dose screen (breast cancer); conditions: 10 µM single dose, 48 h
Experimental: as §1

MCF7 [8] = experiment: NCI-60 one-dose screen (breast cancer); conditions: 10 µM single dose, 48 h
Experimental: as §1

T-47D = experiment: NCI-60 one-dose screen (breast cancer); conditions: 10 µM single dose, 48 h
Experimental: as §1

MDA-MB-231/ATCC [9] = experiment: NCI-60 one-dose screen (breast cancer); conditions: 10 µM single dose, 48 h
Experimental: as §1

HT29 = experiment: NCI-60 five-dose assay (colon cancer); conditions: SRB
SK-MEL-28 [10] = experiment: NCI-60 five-dose assay (melanoma); conditions: 48 h, SRB
HOP-62 = experiment: NCI-60 five-dose assay (non-small cell lung cancer); conditions: 48 h, SRB
SK-OV-3 = experiment: NCI-60 five-dose assay (ovarian cancer); conditions: 48 h, SRB
MOLT-4 = experiment: NCI-60 five-dose assay (leukemia); conditions: 48 h, SRB
SK-MEL-5 [11] = experiment: NCI-60 five-dose assay (melanoma); conditions: 48 h, SRB
SNB-19 = experiment: NCI-60 five-dose assay (CNS cancer); conditions: 48 h, SRB
UACC-257 [12] = experiment: NCI-60 five-dose assay (melanoma); conditions: 48 h, SRB
EKVX = experiment: NCI-60 five-dose assay (non-small cell lung cancer); conditions: 48 h, SRB
A549/ATCC = experiment: as above; conditions: 48 h, SRB
LOX IMVI = experiment: NCI-60 one-dose screen (melanoma); conditions: 10 µM single dose, 48 h
Experimental: as §1

UACC-257 [13] = experiment: NCI-60 one-dose screen (melanoma); conditions: 10 µM single dose, 48 h
Experimental: as §1

SK-MEL-2 = experiment: NCI-60 one-dose screen (melanoma); conditions: 10 µM single dose, 48 h
Experimental: as §1

MDA-MB-435 = experiment: NCI-60 one-dose screen (melanoma); conditions: 10 µM single dose, 48 h
Experimental: as §1

UACC-62 = experiment: NCI-60 one-dose screen (melanoma); conditions: 10 µM single dose, 48 h
Experimental: as §1

SK-MEL-5 [14] = experiment: NCI-60 one-dose screen (melanoma); conditions: 10 µM single dose, 48 h
Experimental: as §1

MALME-3M = experiment: NCI-60 one-dose screen (melanoma); conditions: 10 µM single dose, 48 h
Experimental: as §1

SK-MEL-28 [15] = experiment: NCI-60 one-dose screen (melanoma); conditions: 10 µM single dose
Experimental: as §1

K-562 [16] = experiment: NCI-60 five-dose assay (leukemia); conditions: SRB
[17] = Homo sapiens, read-out: LC50 (the source's name)

CCOc1ccc(NC2=C(Cl)C(=O)c3nc(C)ccc3C2=O)cc1 [AQQ3]
TGI (RPMI-8226 [1]): 5.33 µM
GI50 (RPMI-8226 [1]; Homo sapiens): 1.67 µM
CC50 (RPMI-8226 [1]; [17]): > 100 µM
GP (growth percentage) (SR): −27.42%
GP (growth percentage) (CCRF-CEM [2]; 48 h): 0.63%
inhibition at 10 µM (CCRF-CEM [2]; Homo sapiens): 99.4%
GP (growth percentage) (HL-60(TB)): −46.39%
GP (growth percentage) (RPMI-8226 [3]): −19.35%
GP (growth percentage) (K-562 [4]): −4.17%
TGI (CCRF-CEM [5]): >100 µM
GI50 (CCRF-CEM [5]; Homo sapiens): 2.11 µM
LC50 (concentration killing 50% of cells) (CCRF-CEM [5]; Homo sapiens): > 100 µM
TGI (HCC-2998): 3.25 µM
GI50 (HCC-2998; Homo sapiens): 1.76 µM
LC50 (concentration killing 50% of cells) (HCC-2998; Homo sapiens): 6 µM
TGI (MDA-MB-231/ATCC [6]): 2.50 µM
GI50 (MDA-MB-231/ATCC [6]; Homo sapiens): 1.17 µM
LC50 (concentration killing 50% of cells) (MDA-MB-231/ATCC [6]; Homo sapiens): 5.34 µM
TGI (SW-620): 3.51 µM
GI50 (SW-620; Homo sapiens): 1.83 µM
LC50 (SW-620; Homo sapiens): 6.73 µM
TGI (MCF7 [7]): 3.82 µM
GI50 (MCF7 [7]; Homo sapiens): 1.54 µM
LC50 (MCF7 [7]; Homo sapiens): 9.44 µM
TGI (NCI-H23): 2.85 µM
GI50 (NCI-H23; Homo sapiens): 1.35 µM
CC50 (NCI-H23; [17]): 6.03 µM
GP (growth percentage) (MDA-MB-468): −95.15%
GP (growth percentage) (BT-549): 46.48%
GP (growth percentage) (HS 578T): 48.97%
GP (growth percentage) (MCF7 [8]): −66.97%
GP (growth percentage) (T-47D): −43.85%
GP (growth percentage) (MDA-MB-231/ATCC [9]): −71.74%
TGI (HT29; 48 h): 7.08 µM
GI50 (HT29; Homo sapiens, HT-29, 48 h): 2.87 µM
LC50 (concentration killing 50% of cells) (HT29; Homo sapiens, HT-29, 48 h): 62.5 µM
TGI (SK-MEL-28 [10]): 3.14 µM
GI50 (SK-MEL-28 [10]; Homo sapiens): 1.73 µM
LC50 (SK-MEL-28 [10]; Homo sapiens): 5.7 µM
TGI (HOP-62): 3.23 µM
GI50 (HOP-62; Homo sapiens): 1.74 µM
LC50 (concentration killing 50% of cells) (HOP-62; Homo sapiens): 6.01 µM
TGI (SK-OV-3): 30.1 µM
GI50 (SK-OV-3; Homo sapiens): 11 µM
LC50 (50% net cell kill) (SK-OV-3; Homo sapiens): 82.3 µM
TGI (MOLT-4): >100 µM
GI50 (MOLT-4; Homo sapiens): 2.49 µM
LC50 (MOLT-4; Homo sapiens): > 100 µM
TGI (SK-MEL-5 [11]): 3.11 µM
GI50 (SK-MEL-5 [11]; Homo sapiens): 1.72 µM
CC50 (SK-MEL-5 [11]; [17]): 5.62 µM
TGI (SNB-19): 3.16 µM
GI50 (SNB-19; Homo sapiens): 1.68 µM
CC50 (SNB-19; [17]): 5.94 µM
TGI (UACC-257 [12]): 2.78 µM
GI50 (UACC-257 [12]; Homo sapiens): 1.39 µM
LC50 (NCI-60 lethal concentration, 50% cell kill) (UACC-257 [12]; Homo sapiens): 5.58 µM
TGI (EKVX): 3.12 µM
GI50 (EKVX; Homo sapiens): 1.61 µM
CC50 (EKVX; [17]): 6.05 µM
TGI (A549/ATCC): 4.64 µM
GI50 (A549/ATCC; Homo sapiens): 2.09 µM
CC50 (A549/ATCC; [17]): 17.5 µM
GP (growth percentage) (LOX IMVI): −76.37%
GP (growth percentage) (UACC-257 [13]): −89.19%
GP (growth percentage) (SK-MEL-2): −49.77%
GP (growth percentage) (MDA-MB-435): −83.74%
GP (growth percentage) (UACC-62): −43.31%
GP (growth percentage) (SK-MEL-5 [14]): −98.64%
GP (growth percentage) (MALME-3M): −90.58%
GP (growth percentage) (SK-MEL-28 [15]; 48 h): 8.93%
inhibition at 10 µM (SK-MEL-28 [15]; Homo sapiens): 91.1%
TGI (K-562 [16]; 48 h): >100 µM
GI50 (K-562 [16]; Homo sapiens, K562, 48 h): 1.17 µM
LC50 (K-562 [16]; Homo sapiens, K562, 48 h): > 100 µM
